Experimental data as given in PubChem BioAssay (NCI).
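Where inhibition never reached the appropriate level, the endpoint shown equals the highest concentration tested. Otherwise, values were interpolated linearly from a five-concentration, 48-hour dose response in 96-well plates. At the GI50, growth is halved. TGI marks complete inhibition of growth.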

Tests used:
Test in all cases: DTP human tumour cell line panel, 48 h
[1] = test system: COLO 205 colon
[2] = test system: SK-OV-3 ovarian
[3] = test system: PC-3 prostate
[4] = test system: MDA-MB-231 breast
[5] = test system: SF-295 CNS
[6] = test system: OVCAR-5 ovarian
[7] = test system: NCI-H460 lung
[8] = test system: OVCAR-3 ovarian
[9] = test system: HOP-92 NSCLC
[10] = test system: U251 CNS
[11] = test system: OVCAR-8 ovarian
[12] = test system: SK-MEL-5 melanoma
[13] = test system: CCRF-CEM leukemia
[14] = test system: UO-31 renal
[15] = test system: SK-MEL-2 melanoma
[16] = test system: MDA-MB-435
[17] = test system: IGROV1 ovarian
[18] = test system: KM12 colon
[19] = test system: HS 578T breast
[20] = test system: A498 renal
[21] = test system: SR leukemia
[22] = test system: T-47D breast
[23] = test system: HCT-116 colon
[24] = test system: HT29 colon
[25] = test system: UACC-257 melanoma
[26] = test system: 786-0 renal
[27] = test system: RPMI-8226 leukemia
[28] = test system: NCI-H226 lung
[29] = test system: MOLT-4 leukemia
[30] = test system: NCI-H522 lung
[31] = test system: SW-620 colon
[32] = test system: TK-10 renal
[33] = test system: CAKI-1 renal
[34] = test system: BT-549 breast
[35] = test system: UACC-62 melanoma
[36] = test system: SF-268 CNS
[37] = test system: A549 NSCLC
[38] = test system: K-562 leukemia
[39] = test system: SNB-19 CNS
[40] = test system: RXF 393 renal
[41] = test system: SF-539 CNS
[42] = test system: EKVX NSCLC
[43] = test system: M14 melanoma
[44] = test system: HOP-62 NSCLC
[45] = test system: MCF7 breast
[46] = test system: HCT-15 colon
[47] = test system: NCI/ADR-RES ovarian
[48] = test system: NCI-H23 lung
[49] = test system: SN12C renal
[50] = test system: HCC-2998 colon
[51] = test system: ACHN renal
[52] = test system: DU-145 prostate
[53] = test system: SNB-75 CNS
[54] = test system: LOX IMVI melanoma
[55] = test system: OVCAR-4 ovarian
[56] = test system: SK-MEL-28 melanoma
[57] = test system: HL-60(TB) leukemia
[58] = test system: MALME-3M melanoma

## Oc1ccccc1-c1nn(CNc2ccc(Cl)cc2)c(=S)o1
[1]
  GI50: 7.01 µM
  TGI: > 100 µM
[2]
  GI50: > 100 µM
  TGI: > 100 µM
[3]
  GI50: > 100 µM
  TGI: > 100 µM
[4]
  GI50: > 100 µM
  TGI: > 100 µM
[5]
  GI50: > 100 µM
  TGI: > 100 µM
[6]
  GI50: > 100 µM
  TGI: > 100 µM
[7]
  GI50: 25.7 µM
  TGI: > 100 µM
[8]
  GI50: 23.5 µM
  TGI: > 100 µM
[9]
  GI50: 88.8 µM
  TGI: > 100 µM
[10]
  GI50: 31.9 µM
  TGI: > 100 µM
[11]
  GI50: 30.2 µM
  TGI: 89.9 µM
[12]
  GI50: 2.31 µM
  TGI: > 100 µM
[13]
  GI50: > 100 µM
  TGI: > 100 µM
[14]
  GI50: > 100 µM
  TGI: > 100 µM
[15]
  GI50: > 100 µM
  TGI: > 100 µM
[16]
  GI50: 3.21 µM
  TGI: > 100 µM
[17]
  GI50: > 100 µM
  TGI: > 100 µM
[18]
  GI50: 11.7 µM
  TGI: > 100 µM
[19]
  GI50: > 100 µM
  TGI: > 100 µM
[20]
  GI50: > 100 µM
  TGI: > 100 µM
[21]
  GI50: 16 µM
  TGI: 43.4 µM
[22]
  GI50: 57 µM
  TGI: > 100 µM
[23]
  GI50: 18.2 µM
  TGI: 51.4 µM
[24]
  GI50: 24.2 µM
  TGI: 88.1 µM
[25]
  GI50: 20.6 µM
  TGI: 47.9 µM
[26]
  GI50: > 100 µM
  TGI: > 100 µM
[27]
  GI50: > 100 µM
  TGI: > 100 µM
[28]
  GI50: 14.1 µM
  TGI: > 100 µM
[29]
  GI50: 20.7 µM
  TGI: 74 µM
[30]
  GI50: > 100 µM
  TGI: > 100 µM
[31]
  GI50: 22.4 µM
  TGI: > 100 µM
[32]
  GI50: 1.53 µM
  TGI: > 100 µM
[33]
  GI50: 3.71 µM
  TGI: > 100 µM
[34]
  GI50: 61.1 µM
  TGI: > 100 µM
[35]
  GI50: 0.633 µM
  TGI: > 100 µM
[36]
  GI50: 9.2 µM
  TGI: > 100 µM
[37]
  GI50: 26.3 µM
  TGI: 99.2 µM
[38]
  GI50: 0.263 µM
  TGI: > 100 µM
[39]
  GI50: > 100 µM
  TGI: > 100 µM
[40]
  GI50: 19.9 µM
  TGI: 48.5 µM
[41]
  GI50: 23.8 µM
  TGI: > 100 µM
[42]
  GI50: > 100 µM
  TGI: > 100 µM
[43]
  GI50: 28.3 µM
  TGI: > 100 µM
[44]
  GI50: > 100 µM
  TGI: > 100 µM
[45]
  GI50: 4.17 µM
  TGI: > 100 µM
[46]
  GI50: 20 µM
  TGI: 45.4 µM
[47]
  GI50: 18.9 µM
  TGI: 79.7 µM
[48]
  GI50: 0.511 µM
  TGI: 64.5 µM
[49]
  GI50: 75.8 µM
  TGI: > 100 µM

## Fc1cccc(COc2ccc(Nc3ncnc4onc(-c5ccccc5)c34)cc2)c1
[1]
  GI50: 0.202 µM
  TGI: 0.787 µM
[2]
  GI50: 0.459 µM
  TGI: > 100 µM
[3]
  GI50: 0.262 µM
  TGI: > 100 µM
[50]
  GI50: 0.287 µM
  TGI: 16.8 µM
[4]
  GI50: 0.402 µM
  TGI: 14.8 µM
[5]
  GI50: 0.405 µM
  TGI: > 26.7 µM
[51]
  GI50: 3.38 µM
  TGI: > 100 µM
[6]
  GI50: 0.34 µM
  TGI: 29.3 µM
[7]
  GI50: 0.0661 µM
  TGI: > 53.3 µM
[8]
  GI50: 0.252 µM
  TGI: 2.19 µM
[9]
  GI50: 0.264 µM
  TGI: 62.8 µM
[52]
  GI50: 0.172 µM
  TGI: 0.806 µM
[10]
  GI50: 0.215 µM
  TGI: > 86.8 µM
[11]
  GI50: 0.262 µM
  TGI: > 100 µM
[12]
  GI50: 0.299 µM
  TGI: 30.4 µM
[13]
  GI50: 0.287 µM
  TGI: > 50.4 µM
[14]
  GI50: 3 µM
  TGI: 26.8 µM
[15]
  GI50: 0.426 µM
  TGI: > 100 µM
[17]
  GI50: 0.249 µM
  TGI: > 100 µM
[18]
  GI50: 0.173 µM
  TGI: > 38.4 µM
[53]
  GI50: < 0.0162 µM
  TGI: 0.155 µM
[54]
  GI50: 0.125 µM
  TGI: > 100 µM
[19]
  GI50: 0.0974 µM
  TGI: 2.02 µM
[20]
  GI50: 0.24 µM
  TGI: 3.18 µM
[21]
  GI50: 0.0884 µM
  TGI: > 100 µM
[22]
  GI50: 0.218 µM
  TGI: > 100 µM
[23]
  GI50: 0.0546 µM
  TGI: > 37.4 µM
[24]
  GI50: 0.0495 µM
  TGI: > 34 µM
[25]
  GI50: 37.5 µM
  TGI: > 100 µM
[26]
  GI50: 0.691 µM
  TGI: 21.2 µM
[27]
  GI50: 0.0497 µM
  TGI: > 42 µM
[28]
  GI50: 3.06 µM
  TGI: > 100 µM
[29]
  GI50: 0.27 µM
  TGI: > 100 µM
[30]
  GI50: 0.138 µM
  TGI: 0.905 µM
[55]
  GI50: 0.988 µM
  TGI: > 100 µM
[31]
  GI50: 0.139 µM
  TGI: > 100 µM
[32]
  GI50: 1.21 µM
  TGI: 36.1 µM
[33]
  GI50: 0.573 µM
  TGI: > 100 µM
[34]
  GI50: 0.347 µM
  TGI: > 100 µM
[35]
  GI50: 0.496 µM
  TGI: > 64.4 µM
[36]
  GI50: 0.384 µM
  TGI: > 100 µM
[37]
  GI50: 0.175 µM
  TGI: > 100 µM
[38]
  GI50: 0.101 µM
  TGI: > 100 µM
[39]
  GI50: 0.339 µM
  TGI: > 100 µM
[40]
  GI50: 0.219 µM
  TGI: 1.35 µM
[41]
  GI50: 0.185 µM
  TGI: 1.09 µM
[42]
  GI50: 1.61 µM
  TGI: > 100 µM
[56]
  GI50: 16.4 µM
  TGI: > 100 µM
[43]
  GI50: 0.179 µM
  TGI: > 100 µM
[44]
  GI50: 0.406 µM
  TGI: > 100 µM
[45]
  GI50: 0.0393 µM
  TGI: > 100 µM
[57]
  GI50: 0.0955 µM
  TGI: > 100 µM
[46]
  GI50: 2.43 µM
  TGI: > 100 µM
[47]
  GI50: 3.02 µM
  TGI: 15.7 µM
[48]
  GI50: 0.583 µM
  TGI: > 100 µM
[49]
  GI50: 0.347 µM
  TGI: > 100 µM
[58]
  GI50: 0.206 µM
  TGI: > 100 µM
